In US12043599B2, “Herbicidal compounds” (SYNGENTA PARTICIPATIONS AG, priority 2018, dated 2024):

What was measured:
Type in all cases: in vivo
Conditions in all cases: 250 g/h, evaluated after 13 days
[1] = tested on: Setaria faberi (SETFA); assay: Post-emergence herbicidal glasshouse test, percentage damage
How it was run: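 Percentage damage was scored 13 days after treatment on a five-point scale (1=0-19% to 5=80-100%). Treatments were post-emergence sprays on 8-day-old wheat, barley and SETFA plants in a glasshouse (24/16 °C day/night, 14 h light, 65% humidity), using acetone/water 50:50 with 0.5% Tween 20 at the stated rates. Wheat additionally received cloquintocet-mexyl safener at 50 g/ha.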

[2] = tested on: Echinochloa crus-galli (ECHCG); assay: Pre-emergence herbicidal glasshouse test, percentage damage
How it was run: (§1)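 Each compound is sprayed at 250 g/h on pots either 1 or 8 days after sowing (pre- and post-emergence respectively). Growth under controlled glasshouse conditions, 24/16 °C day/night and 65% humidity, continues for 13 days before damage is rated on a five-point scale.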

[3] = tested on: Setaria faberi (SETFA); assay: as above
How it was run: as §1

[4] = tested on: Avena fatua (AVEFA); assay: as above
How it was run: as §1

[5] = tested on: Lolium perenne (LOLPE); assay: as above
How it was run: as §1

[6] = tested on: Alopecurus myosuroides (ALOMY); assay: as above
How it was run: as §1

[7] = tested on: Echinochloa crus-galli (ECHCG); assay: Post-emergence herbicidal glasshouse test, percentage damage
How it was run: as §1

[8] = tested on: Avena fatua (AVEFA); assay: as above
How it was run: as §1

[9] = tested on: Lolium perenne (LOLPE); assay: as above
How it was run: as §1

[10] = tested on: Alopecurus myosuroides (ALOMY); assay: as above
How it was run: as §1

SMILES	SETFA POST percentage damage (five point scale) [1]	ECHCG PRE percentage damage (five point scale) [2]	SETFA PRE percentage damage (five point scale) [3]	AVEFA PRE percentage damage (five point scale) [4]	LOLPE PRE percentage damage (five point scale) [5]	ALOMY PRE percentage damage (five point scale) [6]	ECHCG POST percentage damage (five point scale) [7]	AVEFA POST percentage damage (five point scale) [8]	LOLPE POST percentage damage (five point scale) [9]	ALOMY POST percentage damage (five point scale) [10]
CC#Cc1cc(C)c(C2C(=O)CC3(CCN(C(=O)Nc4ccccn4)CC3)CC2=O)c(C)c1 [Compound A41]	5 (5=80-100%)	5 (5=80-100%)	5 (5=80-100%)	4 (4=60-79%)	5 (5=80-100%)	4 (4=60-79%)	5 (5=80-100%)	5 (5=80-100%)	5 (5=80-100%)	4 (4=60-79%)
CC#Cc1cc(C)c(C2C(=O)CC3(CCN(C(=O)Nc4ncccc4C)CC3)CC2=O)c(C)c1 [Compound A177]	5 (5=80-100%)	5 (5=80-100%)	5 (5=80-100%)	4 (4=60-79%)	5 (5=80-100%)	2 (2=20-39%)	5 (5=80-100%)	5 (5=80-100%)	5 (5=80-100%)	4 (4=60-79%)
CC#Cc1cc(C)c(C2C(=O)CC3(CCN(C(=O)COCCCl)CC3)CC2=O)c(C)c1 [Compound A200]	5 (5=80-100%)	5 (5=80-100%)	5 (5=80-100%)	4 (4=60-79%)	5 (5=80-100%)	5 (5=80-100%)	5 (5=80-100%)	5 (5=80-100%)	5 (5=80-100%)	5 (5=80-100%)
CC#Cc1cc(C)c(C2C(=O)CC3(CCN(C(=O)N4CCOCC4)CC3)CC2=O)c(C)c1 [Compound A13]	5 (5=80-100%)	5 (5=80-100%)	5 (5=80-100%)	5 (5=80-100%)	5 (5=80-100%)	5 (5=80-100%)	5 (5=80-100%)	5 (5=80-100%)	5 (5=80-100%)	5 (5=80-100%)
CC#Cc1cc(C)c(C2C(=O)CC3(CCN(C(=O)COCC)CC3)CC2=O)c(C)c1 [Compound A148]	5 (5=80-100%)	5 (5=80-100%)	5 (5=80-100%)	5 (5=80-100%)	5 (5=80-100%)	5 (5=80-100%)	5 (5=80-100%)	5 (5=80-100%)	5 (5=80-100%)	5 (5=80-100%)
CC#Cc1cc(C)c(C2=C(OC(=O)c3ccccc3)CC3(CCN(C(=O)c4ccccc4)CC3)CC2=O)c(C)c1 [Compound P2]	5 (5=80-100%)	5 (5=80-100%)	5 (5=80-100%)	5 (5=80-100%)	5 (5=80-100%)	5 (5=80-100%)	5 (5=80-100%)	5 (5=80-100%)	5 (5=80-100%)	5 (5=80-100%)
CC#Cc1cc(C)c(C2C(=O)CC3(CCN(C(=O)Cc4cccnc4)CC3)CC2=O)c(C)c1 [Compound A99]	5 (5=80-100%)	5 (5=80-100%)	4 (4=60-79%)	3 (3=40-59%)	4 (4=60-79%)	3 (3=40-59%)	5 (5=80-100%)	5 (5=80-100%)	4 (4=60-79%)	4 (4=60-79%)
CC#Cc1cc(C)c(C2C(=O)CC3(CCN(C(=O)[C@@H](C)OC)CC3)CC2=O)c(C)c1 [Compound A154]	5 (5=80-100%)	5 (5=80-100%)	5 (5=80-100%)	5 (5=80-100%)	5 (5=80-100%)	5 (5=80-100%)	5 (5=80-100%)	5 (5=80-100%)	5 (5=80-100%)	5 (5=80-100%)
CC#Cc1cc(C)c(C2C(=O)CC3(CCN(C(=O)NC(C)C)CC3)CC2=O)c(C)c1 [Compound A152]	5 (5=80-100%)	5 (5=80-100%)	5 (5=80-100%)	5 (5=80-100%)	5 (5=80-100%)	5 (5=80-100%)	5 (5=80-100%)	5 (5=80-100%)	5 (5=80-100%)	5 (5=80-100%)
CC#Cc1cc(C)c(C2C(=O)CC3(CCN(C(=O)C4CC4)CC3)CC2=O)c(OC)c1 [Compound A78]	5 (5=80-100%)	5 (5=80-100%)	5 (5=80-100%)	5 (5=80-100%)	5 (5=80-100%)	5 (5=80-100%)	5 (5=80-100%)	5 (5=80-100%)	5 (5=80-100%)	5 (5=80-100%)
CC#Cc1cc(C)c(C2C(=O)CC3(CCN(C(=O)COC)CC3)CC2=O)c(OC)c1 [Compound A75]	5 (5=80-100%)	5 (5=80-100%)	5 (5=80-100%)	5 (5=80-100%)	5 (5=80-100%)	5 (5=80-100%)	5 (5=80-100%)	5 (5=80-100%)	5 (5=80-100%)	5 (5=80-100%)
CC#Cc1cc(C)c(C2=C(OC(C)=O)CC3(CCN(C(=O)NC(C)=O)CC3)CC2=O)c(C)c1 [Compound P12]	5 (5=80-100%)	5 (5=80-100%)	5 (5=80-100%)	4 (4=60-79%)	5 (5=80-100%)	4 (4=60-79%)	5 (5=80-100%)	5 (5=80-100%)	5 (5=80-100%)	5 (5=80-100%)
CC#Cc1cc(C)c(C2C(=O)CC3(CCN(C(=O)c4cc(C(F)(F)F)ccn4)CC3)CC2=O)c(C)c1 [Compound A90]	5 (5=80-100%)	5 (5=80-100%)	5 (5=80-100%)	5 (5=80-100%)	5 (5=80-100%)	5 (5=80-100%)	5 (5=80-100%)	5 (5=80-100%)	5 (5=80-100%)	5 (5=80-100%)
CC#Cc1cc(C)c(C2C(=O)CC3(CCN(C(=O)CCOCC)CC3)CC2=O)c(C)c1 [Compound A172]	5 (5=80-100%)	5 (5=80-100%)	5 (5=80-100%)	5 (5=80-100%)	5 (5=80-100%)	5 (5=80-100%)	5 (5=80-100%)	5 (5=80-100%)	5 (5=80-100%)	5 (5=80-100%)
